Assay results taken from ChEMBL document CHEMBL1201862, “PubChem BioAssay data set” (2004).
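Exposure lasted 48 hours, with cells grown in 96-well plates and compounds tested at five concentrations. GI50 = concentration required for 50% inhibition of growth.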 Active and inactive are the calls of the source. No stated cut-off is given here; in the data, active = GI50 up to about 1.1 µM and inactive = higher.

Each compound was assayed on Hs-578T (assay: NCI-60 cell line screen, 48 h).
`CCC1c2[nH]c3ccccc3c2C[C@H]2C(=O)NC(COC(C)(C)C)C(=O)N12` (stereo partly specified) was tested, and the GI50 was 25.8 µM (inactive).
In the case of `CCCCOc1ccc(NC(=N)Nc2ccc(Cl)cc2)cc1`, the GI50 was 5.5 µM (inactive).
`COc1ccc2cc(C(=O)CCC(=O)O)ccc2c1` was tested, and the GI50 was > 100 µM (inactive).
For `O=C(O)/C(Cc1c[nH]nn1)=N\O`, the GI50 was > 100 µM (inactive).
In the case of `Cc1ccc(S(=O)(=O)NC(=O)NC2=NC(C)(C)N(c3ccc(Cl)c(Cl)c3)C(N)=N2)cc1`, the GI50 was 47.8 µM (inactive).
With `CN(CCCNC(=O)c1cn(C)c2c1ccc1ccccc12)CCCNC(=O)c1cn(C)c2c1ccc1ccccc12` the GI50 was 1.44 µM (inactive).
`CC(C)C(=O)[C@@]1(C)SC[C@H]2CCN=C21` was tested, and the GI50 was > 100 µM (inactive).
`C=C(C)C(=O)CC[C@@H](C)[C@H]1[C@@H](OC2OC(CO)C(O)C(O)C2O)C[C@@]2(C)[C@@H]3C[C@H](O)C4C(C)(C)[C@@H](OC5OC(CO)C(O)C(O)C5O)CC[C@@]45C[C@@]35CC[C@]12C` (stereo partly specified) was tested, and the GI50 was 91 µM (inactive).
In the case of `COc1ccc2c(c1)c(=O)c1c(NCCN(C)C)ccc3c(=O)n(CCN(C)C)c(=O)n2c31`, the GI50 was 0.178 µM (active).
For `O=C(c1ccccc1)c1ccc(C(c2c(O)c3ccccc3oc2=O)c2c(O)c3ccccc3oc2=O)cc1`, the GI50 was 24.7 µM (inactive).
For `Fc1ccc2nc3n(c2c1)C(c1c(Cl)cccc1Cl)SC3` (stereo unspecified), the GI50 was > 100 µM (inactive).
In the case of `CC(=O)OC/C=C/Cn1nc(Br)c(=O)[nH]c1=O`, the GI50 was > 100 µM (inactive).
For `COc1ccc2c(c1)C(=O)c1ccccc1C2`, the GI50 was 44.4 µM (inactive).
In the case of `COC(=O)/C=C1/OC(c2ccc(C)cc2)=C(Cl)C1=O`, the GI50 was 22.9 µM (inactive).
With `CC(C(=O)OCc1ccccc1)(c1ccco1)N1C(=O)OC(c2ccccc2)C1c1ccccc1` (stereo unspecified) the GI50 was > 100 µM (inactive).
For `COC(=O)C1CC23C=CCN4CC(C2C)C2(c5ccccc5NC12)C43` (stereo unspecified), the GI50 was > 100 µM (inactive).
`CC(=O)Nc1ccc(S(=O)(=O)/N=C2\C=CC(=O)c3ccccc32)cc1` was tested, and the GI50 was 7.64 µM (inactive).
`CCOC(=O)c1cc(-c2ccc(OC)cc2)c([N+](=O)[O-])[nH]1` was tested, and the GI50 was > 10 µM (inactive).
In the case of `CCOC(CN(C)C(=S)Nc1cccc2ccccc12)OCC`, the GI50 was > 10 µM (inactive).
In the case of `CC(C)=CCC\C(C)=C/C=C/C(C)=C\C=C\C(C)=C/C=C/C=C(C)\C=C\C=C(C)/C=C/C=C(/C)CCC=C(C)C`, the GI50 was > 100 µM (inactive).
In the case of `O=C(OCc1ccccc1)N1CCN(C(=O)OCc2ccccc2)CCN(C(=O)OCc2ccccc2)CCN(C(=O)OCc2ccccc2)CCN(C(=O)OCc2ccccc2)CC1`, the GI50 was 39.3 µM (inactive).
With `CC1(C)C2CCC1(C)C(NC(=O)COCCOCC(N)=O)C2` (stereo unspecified) the GI50 was > 100 µM (inactive).
For `Cn1cc(-c2ccc(CCOC3CCCCO3)cc2)c2c(C#N)cccc21` (stereo unspecified), the GI50 was > 100 µM (inactive).
For `Cc1ccc(S(=O)(=O)NC(=O)NCC(N)=O)cc1`, the GI50 was > 100 µM (inactive).
With `Cc1ccc(S(=O)(=O)N(CC(O)COc2ccccc2)c2c(F)c(F)cc(F)c2F)cc1` (stereo unspecified) the GI50 was 24.3 µM (inactive).
`CC(/C=C/C(O)=C1/C(=O)CNC1=O)=C\[C@@H](C)[C@H]1O[C@@]2(C)O[C@H](C(=O)[C@@H]3O[C@@]32C)[C@@H]1C` was tested, and the GI50 was 24.9 µM (inactive).
`CCOC(=O)c1sc2nc(SC)nc(Nc3ccc(OC)c(OC)c3)c2c1N` was tested, and the GI50 was 17.7 µM (inactive).
In the case of `C=C1C[C@]23CC[C@@H]4C(CO)(CO)CC(=O)C[C@]4(C)[C@@H]2C(O)C[C@H]1C3` (stereo partly specified), the GI50 was > 100 µM (inactive).
With `CCOC(=O)C1(C(N)=O)C(=O)c2ccncc2C1=O` (stereo unspecified) the GI50 was > 100 µM (inactive).
With `CC(C)NC(=O)OCc1c2c(n(C)c1COC(=O)NC(C)C)-c1cc(Cl)c(Cl)cc1CC2` the GI50 was 32.1 µM (inactive).
In the case of `O=S(=O)(O)c1cc(S(=O)(=O)O)c2c(Nc3ccnc4ccccc34)ccc(S(=O)(=O)O)c2c1`, the GI50 was > 100 µM (inactive).
With `O=S(=O)(O)c1ccc(/N=N\c2c(O)ccc3cc(Br)ccc23)cc1` the GI50 was > 100 µM (inactive).
In the case of `OCC1OC(c2n[nH]c3c(O)ncnc23)C(O)C1O` (stereo unspecified), the GI50 was 33.8 µM (inactive).
With `O=C(Oc1cccc(Cl)c1)c1cc2cc(CCl)ccc2oc1=O` the GI50 was 59.8 µM (inactive).
For `N#Cc1ccc(/C=[N+](/C=c2ccc(=C=[N-])cc2)N(CCO)C2=NCCN2)cc1`, the GI50 was > 100 µM (inactive).
`O=C(c1cccs1)N1CCCN(C(=O)c2cccs2)C1=S` was tested, and the GI50 was > 100 µM (inactive).
